One assay relates to Bemisia tabaci. Briefly: Test Example 4: spray on tomato seedling carrying Bemisia tabaci eggs/larvae. The conditions noted are these: 200 ppm, 10 ml/cup sprayed on tomato seedling, larvae checked after 7 days at 25° C., Formulation Example 5. Format: in vivo. Here is the method: The present compounds (1), (4) to (7), (9) to (12) and (14) to (19) were formulated by the method in Formulation Example 5. This formulation was diluted with water so that the active ingredient concentration was 200 ppm, to prepare a diluted solution for test. On a tomato seedling planted in a plastic cup, Bemisia tabaci adult insects were released and allowed to lay eggs for about 24 hours. The tomato seedling was left in a greenhouse for 8 days. Thereafter, the diluted solution for test was sprayed in a proportion of 10 ml/cup. Further, this tomato seedling was placed in a greenhouse at 25° C. for 7 days. Thereafter, the number of larvae living on the tomato leaves was checked, and the control value was calculated according to the following formula. Control value (%)={1−(Cb×Tai)/(Cai×Tb)}×100 Letters in the formula represent the following meanings. Cb: insect number before treatment on non-treated area Cai: insect number in observation on non-treated area Tb: insect number before treatment on treated area Tai: insect number in observation on treated area

In the next assay the test system is Aphis gossypii. Briefly: Test Example 3: treatment of the foot of a cucumber seedling, then inoculation with Aphis gossypii. Format: in vivo. The conditions noted are these: 200 ppm, 5 ml at foot of cucumber seedling, inoculated after 7 days at 25° C., checked after 6 days, Formulation Example 5. Here is the method: The present compound (7) was formulated by the method in Formulation Example 5. This formulation was diluted with water so that the active ingredient concentration was 200 ppm, to prepare a diluted solution for test. The diluted solution for test (5 ml) was used to treat a foot of a cucumber seedling (first true leaf spreading stage) planted in a plastic cup. This cucumber was left in a greenhouse at 25° C. for 7 days. Then; the cucumber leaf surface was inoculated with 30 Aphis gossypii (whole stage). This cucumber was further left in the greenhouse for 6 days, then, the insect number of living Aphis gossypii parasitic on the leaves of this cucumber was checked, and the control value was calculated according to the following formula. Control value (%)={1−(Cb×Tai)/(Cai×Tb)}×100 Letters in the formula represent the following meanings. Cb: insect number before treatment on non-treated area Cai: insect number in observation on non-treated area Tb: insect number before treatment on treated area Tai: insect number in observation on treated area

A value given as a limit tells only on which side of the number the result lay.

Compound `Fc1cnccc1-c1nc2cc(C(F)(F)F)ccc2s1` [compound 1] showed a Control value with Bemisia tabaci of at least 90%.
For the compound `CCS(=O)(=O)c1cnccc1-c1nc2cc(C(F)(F)F)ccc2s1` [compound 7], the Control value with Aphis gossypii was at least 90%.

The record behind these values is patent US8742112B2, “Heterocyclic compound and its use for control of an arthropod pest” (Sumitomo Chemical Company, Limited, priority 2009, dated 2014).
